Experimental data: ChEMBL document CHEMBL5523689, “Synthesis and antimicrobial studies of cadasides analogues via on-resin esterification” (2024)

Assays:
Type in all cases: functional
Bacillus pumilus = experiment: Antibacterial activity against Bacillus pumilus ATCC63202 by broth microdilution method
Escherichia coli = experiment: Antibacterial activity against Escherichia coli ATCC25922 by broth microdilution method
Pseudomonas aeruginosa = experiment: Antibacterial activity against Pseudomonas aeruginosa ATCC27853 by broth microdilution method
Staphylococcus aureus [1] = experiment: Antibacterial activity against […] Staphylococcus aureus ATCC25923 by broth microdilution method
Staphylococcus aureus [2] = experiment: Antibacterial activity against methicillin-resistant Staphylococcus aureus ATCC43300 by broth microdilution method

Compound | MIC (Bacillus pumilus) | MIC (Escherichia coli) | MIC (Pseudomonas aeruginosa) | MIC (Staphylococcus aureus [1]) | MIC (Staphylococcus aureus [2])
CCCCCCCCCC(=O)N[C@@H](Cc1c[nH]c2ccccc12)C(=O)N[C@H](CC(N)=O)C(=O)N[C@@H](CC(=O)O)C(=O)N[C@@H]1C(=O)NCC(=O)N[C@@H](CCCN)C(=O)N[C@@H](CC(=O)O)C(=O)N[C@H](C)C(=O)N[C@@H](CC(=O)O)C(=O)NCC(=O)N[C@H](CO)C(=O)N[C@@H]([C@H](C)CC(=O)O)C(=O)N[C@@H](CC(=O)c2ccccc2N)C(=O)O[C@@H]1C | ≤ 5 µg/mL | ≤ 5 µg/mL | ≤ 5 µg/mL | ≤ 5 µg/mL | ≤ 5 µg/mL
CCCCCCCCC(=O)NC[C@@H](C)C(=O)NCC(=O)N[C@H](CCC(=O)O)C(=O)N[C@@H](Cc1ccc(O)cc1)C(=O)N[C@@H]1C(=O)N[C@H]([C@H](C)CC)C(=O)N[C@@H](CC(=O)O)C(=O)N[C@@H]([C@@H](O)C(=O)OC)C(=O)N2CCC[C@H]2C(=O)NCC(=O)N[C@H](CCC(=O)O)C(=O)N[C@@H](CCC(=O)O)C(=O)N(C)CC(=O)O[C@@H]1C | ≥ 128 µg/mL | ≥ 128 µg/mL | ≥ 128 µg/mL | ≥ 128 µg/mL | ≥ 128 µg/mL
CCCCCCCCCC(=O)NC[C@@H](C)C(=O)NCC(=O)N[C@H](CCC(=O)O)C(=O)N[C@@H](Cc1ccc(O)cc1)C(=O)N[C@@H]1C(=O)N[C@H]([C@H](C)CC)C(=O)N[C@@H](CC(=O)O)C(=O)N[C@@H]([C@@H](O)C(=O)O)C(=O)N2CCC[C@H]2C(=O)NCC(=O)N[C@H](CCC(=O)O)C(=O)N[C@@H](CCC(=O)O)C(=O)N(C)CC(=O)O[C@@H]1C | ≥ 128 µg/mL | ≥ 128 µg/mL | ≥ 128 µg/mL | ≥ 128 µg/mL | ≥ 128 µg/mL
CCCCCCCCC(=O)NC[C@@H](C)C(=O)NCC(=O)N[C@H](CCC(=O)O)C(=O)N[C@@H](Cc1ccc(O)cc1)C(=O)N[C@@H]1C(=O)N[C@H]([C@H](C)CC)C(=O)N[C@@H](CC(=O)O)C(=O)N[C@@H]([C@@H](O)C(=O)O)C(=O)N2CCC[C@H]2C(=O)NCC(=O)N[C@H](CCC(=O)O)C(=O)N[C@@H](CCC(=O)O)C(=O)N(C)CC(=O)O[C@@H]1C | ≥ 128 µg/mL | ≥ 128 µg/mL | ≥ 128 µg/mL | ≥ 128 µg/mL | ≥ 128 µg/mL
CCCCCCCCCC(=O)NC[C@@H](C)C(=O)NCC(=O)N[C@H](CCC(=O)O)C(=O)N[C@@H](Cc1ccc(O)cc1)C(=O)N[C@@H]1C(=O)N[C@H]([C@H](C)CC)C(=O)N[C@@H](CC(=O)O)C(=O)N[C@@H]([C@@H](O)C(=O)OC)C(=O)N2CCC[C@H]2C(=O)NCC(=O)N[C@H](CCC(=O)O)C(=O)N[C@@H](CCC(=O)O)C(=O)N(C)CC(=O)O[C@@H]1C | ≥ 128 µg/mL | ≥ 128 µg/mL | ≥ 128 µg/mL | ≥ 128 µg/mL | ≥ 128 µg/mL
CCCCCCCC(=O)NC[C@@H](C)C(=O)NCC(=O)N[C@H](CCC(=O)O)C(=O)N[C@@H](Cc1ccc(O)cc1)C(=O)N[C@@H]1C(=O)N[C@H]([C@H](C)CC)C(=O)N[C@@H](CC(=O)O)C(=O)N[C@@H](CC(=O)O)C(=O)N2CCC[C@H]2C(=O)NCC(=O)N[C@H](CCC(=O)O)C(=O)N[C@@H](CCC(=O)O)C(=O)N(C)CC(=O)O[C@@H]1C | ≥ 128 µg/mL | ≥ 128 µg/mL | ≥ 128 µg/mL | ≥ 128 µg/mL | ≥ 128 µg/mL
